From US20250282779A1, “SUBSTITUTED 5,6,7,8-TETRAHYDROPYRIDO[2,3-D]PYRIMIDINE-2,4-DIONES FOR TREATING CARDIAC DISEASES” (MYOKARDIA, INC., priority 2018, published 2025)

Tests used:
[1] = test system: adult rat ventricular myocytes; experiment: Cardiomyocyte contractility assay; format: cell-based; conditions: 0.3 μM compound; for inhibition at 0.3 µM: Rattus norvegicus, Ventricular myocyte, fractional shortening, myocytes paced at 1 Hz, read-out: % inhibition of FS at 0.3 μM
Method: Cardiomyocyte Contractility Assay
Contractility of adult rat ventricular myocytes is determined by edge detection with an IonOptix contractility system. Aliquots of myocytes in Tyrode buffer (137 mM NaCl, 3.7 mM KCL, 0.5 mM MgCl2, 1.5 mM CaCl2, 4 mM HEPES, 11 mM glucose) are placed in a perfusion chamber (Series 20 RC-27NE; Warner Instruments), allowed to adhere to the coverslip, and then perfused with 37° C. Tyrode buffer. Myocytes are filed stimulated at 1 Hz and 10V. Only myocytes with clear striations, quiescent prior to pacing, with a cell length of 120-180 microns, a basal fractional shortening equal to 3-8% of the cell length, and a contraction velocity greater than 100 microns per second are used for contractility experiments. To determine the response to compounds (at 0.3 μM concentration), myocytes are first perfused for 60 seconds with Tyrodes buffer followed by 5 min of compound and a 140 second washout with Tyrodes buffer. Data is continuously recorded using IonOptix software. Contractility data is analyzed using Ionwizard software (IonOptix). For each cell, 10-20 contractility transients were averaged and compared under basal (no compound) and compound-treated conditions. Compound activity is measured by effects on fractional shortening (FS), where fractional shortening is the ratio of the peak length of the cell at contraction divided by the basal cell length normalized to 100% for an untreated cell. The % inhibition measurement is calculated by subtracting the FS value from 100%.

[2] = Reactive metabolite identification (glutathione adducts); format: in vitro ADME, human; conditions: for % GSH-adduct (+NADPH, +GSH) relative to parent (−NADPH, −GSH): human liver microsomes, 30 μM, 60 min
Method: Reactive Metabolite Identification
In vitro determination of reactive metabolite formation for small molecules by detection of glutathione adducts formed in vitro in incubations with human liver microsomes fortified with NADPH and glutathione.
Methods: The metabolism of small molecules (30 μM) for glutathione adduct formation was assessed in incubations (200 μL volume, […], 60 min incubation time) with liver microsomes from human (1 mg/mL protein) conducted in potassium phosphate buffer (0.1 M, pH 7.4) for 1 h at 37° C. in a 96-well plate (2 mL well volume) and were performed in the absence of NADPH (used as a negative control) and in the presence of NADPH (1 mM) and glutathione (GSH, 10 mM). Incubations with liver microsomes were performed in a shaking water bath incubator with slow horizontal shaking (30 rpm). To obtain 30 μM incubation concentration of a compound, a 3 mM substrate stock solution in DMSO was used. Final incubation mixtures contained 148 μL of potassium phosphate buffer, 10 μL of liver microsome solution (20 mg protein/mL), 2 μL of the 3 mM substrate solution and where incubations were initiated by the addition of 40 μL of NADPH solution (5 mM dissolved in potassium phosphate buffer). Non-NADPH containing incubations were supplemented with 40 μL of potassium phosphate buffer. Post-incubation, reactions were terminated by adding an equal volume of acetonitrile containing 20 nM carbamazepine internal standard and 3% formic acid. Quenched samples then were centrifuged (4,600 rpm, 4° C., 10-min) after which the supernatants were transferred to a 96-well LC-MS sample analysis plate and diluted with one volume equivalent of HPLC-grade water, and then heat sealed with aluminum foil prior to analysis by liquid chromatography/mass spectrometry (LC-MS/MS).
Analyte identification: The LC-MS/MS detection (with in-line UV detection at 280 nm) of test compounds and potential GSH-adducts was focused on extracting selected ion chromatographic profiles using the protonated molecular ion MH^+ m/z for parent to 4 decimal places, and corresponding protonated molecular ions of predicted GSH-adduct metabolites (m/z MH^+ parent+305.0681 amu) using Xcalibur software (version 2.1.0, Thermo Fisher Scientific, Waltham, MA). Relative GSH-adduct abundance in vitro in liver microsome extracts was assessed using the LC/UV absorbance at 280 nm peak area ratio obtained by using Xcalibur software (version 2.1.0) between the detected GSH-adducts from NADPH- and GSH-fortified incubation extracts and the corresponding LC/UV peak area of the parent compound from minus NADPH containing incubation extracts. The extent of GSH-adduct formation was determined by LC-MS/MS analysis with in-line LC-UV detection at 280 nm by dividing the glutathione-adduct LC/UV peak area by the LC/UV peak area of the corresponding parent HCM-1 NG analog determined from analysis of control (-NAPDH, -GSH) incubations extracts.
Materials: Pooled male human (HLM, 50 donors) liver microsomes were obtained from Bioreclamation IVT (Baltimore, MD). Glutathione (GSH) and NADPH were purchased from Sigma Chemical Co. (St. Louis, MO). All solvents used for liquid chromatography-tandem mass spectrometry (LC-MS/MS) analyses were of chromatographic grade.
LC-MS Conditions: Extracts from incubations with liver microsomes and hepatocytes were characterized by LC-MS and LC-MS/MS on a Thermo Electron LTQ Orbitrap XL mass spectrometer coupled with a Dionex UltiMate 3000 UHPLC containing in-line diode array detection and an OAS-3300TXRS Autosampler (40 μL injection volume). Electrospray ionization (ESI) was employed in the positive ion mode with the needle potential held at 5.01 kV, a sheath flow rate of 35.02, aux flow rate of 9.99, a current of 2.6 uA, a capillary temperature of 325° C., and a capillary voltage of 15.99. Vacuum conditions used were an ion gauge pressure used was 2.33×10^−5 Torr and a convection gauge pressure of 0.90 Torr. […]

% GSH-adduct (+NADPH, +GSH) relative to parent (−NADPH, −GSH) [2] | Glutathione Adduct Detection in Human Liver Microsome Incubations (single measurement) ([2]; single measurement) | Glutathione Adduct Detection in Human Liver Microsome Incubations, Average (triple measurements) ([2]; triple measurements) | observation in cardiomyocyte contractility assay [1] | Structure (SMILES) | inhibition at 0.3 µM [1] [%]
Not Detected | Not Detected | Not Detected |  | Cc1ccc(F)c([C@@H]2Nc3[nH]c(=O)n(C4CCOCC4)c(=O)c3C[C@@H]2F)c1 [Compound 3, (6S,7S)-6-fluoro-7-(2-fluoro-5-methylphenyl)-3-(tetrahydro-2H-pyran-4-yl)-5,6,7,8-tetrahydropyrido[2,3-d]pyrimidine-2, 4 (1H, 3H)-dione] | > 66
Not Detected |  |  | Early after depolarization or EAD | O=c1[nH]c2c(c(=O)n1C1CCOCC1)CC(F)(F)[C@H](c1cccc(F)c1)N2 [Compound C-1, (S)-6,6-difluoro-7-(3-fluorophenyl)-3-(tetrahydro-2H-pyran-4-yl)-5,6,7,8-tetrahydropyrido[2,3-d]pyrimidine-2,4(1H,3H)-dione, reference compound] | 33 to 66
